Article PMC4214736, “Identification of a Novel Drug Lead That Inhibits HCV Infection and Cell-to-Cell Transmission by Targeting the HCV E2 Glycoprotein” (PLoS ONE, 2014)

What was measured:
his-tagged CD81-LEL = molecular target: T1, his-tagged CD81-LEL (Homo sapiens, UniProt P60033); assay: SPR single cycle kinetics (Biacore T100, CM5 chip); type: binding
T1 construct: His-tagged, commercial (Bioclone Inc.)
T1 sequence (P60033 113-201 limits assumed): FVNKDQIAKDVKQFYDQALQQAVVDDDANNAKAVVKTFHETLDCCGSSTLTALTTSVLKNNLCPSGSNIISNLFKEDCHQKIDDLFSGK

[1] = molecular target: T2, HCV E2 protein binding to GST-tagged human CD81-LEL (Hepatitis C virus (isolate Con1), UniProt Q9WMX2); assay: ELISA, inhibition of E2 binding to immobilised CD81-LEL
T2 construct: with CD81 antigen (Homo sapiens)
T2 sequence (Q9WMX2 384-656, one chain of several): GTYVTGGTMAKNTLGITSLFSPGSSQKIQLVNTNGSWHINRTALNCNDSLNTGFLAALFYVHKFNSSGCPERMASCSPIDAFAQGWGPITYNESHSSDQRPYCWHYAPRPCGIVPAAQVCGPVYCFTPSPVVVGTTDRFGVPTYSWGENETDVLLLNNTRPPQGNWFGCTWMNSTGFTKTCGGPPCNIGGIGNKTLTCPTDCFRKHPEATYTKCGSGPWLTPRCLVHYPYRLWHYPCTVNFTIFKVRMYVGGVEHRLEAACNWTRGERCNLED

[2] = molecular target: T3, recombinant HCV E2 protein (Con1eE2, eE2) (Hepatitis C virus (isolate Con1), UniProt Q9WMX2); assay: SPR single cycle kinetics (Biacore T100, CM5 chip); type: binding
T3 construct: E2 ectodomain residues 384-656 cut from the HCV genome polyprotein; C-terminal Protein A tag removed by PreScission protease; secreted from HEK293T cells (lentiviral)
T3 sequence (Q9WMX2 384-656): as the sequence (Q9WMX2 384-656, one chain of several) above

[3] = molecular target: T3, recombinant HCV E2 protein (Con1eE2, eE2); assay: SPR single concentration screen (Biacore T100, CM5 chip); type: binding; details: 200 µM ligand in PBS; E2 immobilised by amine coupling (about 10,000 RU)
From the text: SPR single concentration screen (Biacore T100, CM5 chip) on recombinant HCV E2 protein (Con1eE2, eE2)

[4] = molecular target: HCV E2 protein Con1 eE2 (envelope protein 2 ectodomain, amino acids 384-656) (Hepatitis C virus, isolate Con1 (genotype 1)) (UniProt Q9WMX2); assay: SPR; Biacore T100; HCV E2 (1 µM in 10 mM sodium acetate pH 5) immobilised on a CM5 chip by amine coupling, about 10,000 RU; his-CD81 (50 nM) in PBS injected as positive control
Sequence of HCV E2 protein Con1 eE2 (envelope protein 2 ectodomain, amino acids 384-656) (Hepatitis C virus, isolate Con1 (genotype 1)) (Q9WMX2 384-656): as the sequence (Q9WMX2 384-656, one chain of several) above

Row | Compound | Binding (RU) [3] | also measured
1 | CSc1ccc2c(c1)C(N1CCN(C)CC1)Cc1ccccc1S2 (stereo not drawn) [compound 281816, 1-methyl-4-(3-methylsulfanyl-5,6-dihydrobenzo[b] [1]benzothiepin-5-yl)piperazine] |  | Kd (his-tagged CD81-LEL): 57 µM; IC50 [1]: 0.2 to 0.5 µM; Kd [2]: 41 µM
2 | Nc1nc(N)nc(-c2ccccc2-c2nc(N)nc(N)n2)n1 [compound 4429, NSC# 4429] | 155.3 RU | 
3 | CC1(C)N=C(N)N=C(N)N1c1ccc(OCCCOc2ccccc2)c(Cl)c1.CCS(=O)(=O)O [compound 133071, NSC# 133071] | 276.3 RU | 
4 | COc1ccc(C2=CC(c3ccc(OC)c(OC)c3)c3c(c4ccccc4oc3=O)O2)cc1OC (stereo not drawn) [compound 211490, NSC# 211490] | 102.9 RU | 
5 | Cc1nc(/N=C(/N)N(C)C)[nH]c(=O)c1C [compound 113486, NSC# 113486] | 104.7 RU | 
6 | His-CD81-LEL (large extracellular loop of CD81, his-tagged) (domain or fragment) |  | response units bound [4]: 106 RU
7 | NSC# 144694 [compound 144694] | 118.8 RU | 
